Measured values as given in patent publication US9572814B2, “Methods of improving the pharmacokinetics of doxepin” (Pernix Sleep, Inc., priority 2006, dated 2017).
Where two headings read alike, the source gives them in different places.

What was measured:
[1] = clinical; conditions: both, human, plasma, po, 6 milligram
Description: As described more fully below, a single-center, phase 1, randomized, open-label, single dose, two-way crossover study was conducted in 16 healthy young adult male and female volunteers.
A study assessed the effect of food on the pharmacokinetics (PK) of doxepin in healthy subjects. It was a single-center, phase 1, randomized, open-label, single dose, two-way crossover study conducted in sixteen healthy, young adult male and female subjects. Screening procedures were performed within 14 days prior to enrollment.
Following screening procedures and baseline assessments, eligible subjects were randomly assigned to one of two treatment sequences (fed-fasted or fasted-fed). Subjects received a single 6 milligram dose of doxepin in the morning under either fed or fasted conditions on 2 dosing days (Day 1 and Day 8). There were approximately 7 days between each dose. Enrolled subjects were admitted to the study center on the evening before study drug dosing (Day 0 and Day 7) and remained at the study center for approximately 5 days.
Subjects being dosed under fasted conditions were required to fast overnight for at least 10 hours prior to study drug administration and for 4 hours after study drug administration. Fluids were restricted from 1 hour predose to 1 hour postdose, except for water taken at the time of dosing. Subjects being dosed under fed conditions were dosed approximately 5 minutes after eating a high-fat, high-calorie standardized breakfast (to be ingested within 25 minutes). Subjects were required to ingest the entire contents of the breakfast. All subjects were required to remain in bed for approximately 4 hours after dosing.
The total amount of protein, fat, and carbohydrate that made up this meal was approximately 33, 55, and 58 g, respectively. The total calorie content was approximately 850 kcal.
Subjects were dosed on Day 1 and Day 8. The PK profiles were evaluated on Days 1 through 5 and Days 8 through 12. Blood samples were collected at predose (0 hour) and at 0.08, 0.17, 0.25, 0.5, 0.75, 1, 1.5, 2, 3, 4, 6, 8, 12, 24, 36, 48, 60, 72, and 96 hours postdose. The samples were analyzed for doxepin and doxepin metabolite concentrations in plasma. Plasma concentrations of doxepin were measured using validated high performance liquid chromatography coupled to tandem mass spectrometry. The lower limit of quantification for doxepin was 0.05 ng/mL. The following PK parameters were estimated by noncompartmental methods using actual elapsed time from dosing:

[2] = calculated from geometric LS means, single 6 milligram dose
[3] = plasma, single 6 milligram doxepin tablet, fasted (N = 15)
[4] = plasma, single 6 milligram doxepin tablet, fed (N = 16)
[5] = ratio of geometric LS means, 6 milligram doxepin tablet
[6] = single 6 milligram doxepin tablet, fasted (N 15)
[7] = single 6 milligram doxepin tablet, fed (N 16)
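Further: healthy young adult men and women, dosed in the morning. Doxepin in plasma by validated HPLC-MS/MS (LLOQ 0.05 ng/mL), parameters by noncompartmental analysis on actual elapsed time after dosing.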

CN(C)CCC=C1c2ccccc2COc2ccccc21 [doxepin]
Cmax [1]: 0.854 ng/mL
Tmax [1]: 3 h
time postdose at which detectable plasma levels were first observed (both fed and fasted states (six and five subjects, respectively)): 30 min
time postdose up to which plasma doxepin concentrations remained quantifiable (both treatments (fed and fasted), lower limit of quantification 0.05 ng/mL): up to 48 hours
AUC0-∞, Effect of Food (% of fasted state) [2]: 141 % of fasted state
Cmax, Effect of Food (% of fasted state) [2]: 115 % of fasted state
Tmax, Effect of Food (% of fasted state) (median Tmax, single 6 milligram dose): 200 % of fasted state
AUC0-Tlast, arithmetic mean [3]: 12.6 ng·h/mL
AUC0-∞, arithmetic mean [3]: 14.1 ng·h/mL
t1/2, arithmetic mean [3]: 14.4 h
λz, arithmetic mean [3]: 0.0623 h⁻¹
Cmax, arithmetic mean [4]: 0.951 ng/mL
Tmax, median [4]: 6.0 h
λz, arithmetic mean [4]: 0.0445 h⁻¹
AUC0-Tlast, Pairwise Comparison Ratio Fed/Fasted [5]: 145.6%
AUC0-∞, Pairwise Comparison Ratio Fed/Fasted [5]: 141.3%
Cmax, Pairwise Comparison Ratio Fed/Fasted [5]: 114.6%
increase in AUC0-Tlast under fed conditions compared to fasted conditions (single 6 milligram dose): 46%
mean CL/F lower in the fed state compared to the fasted state (single 6 milligram dose): 43%
mean Vd/F lower in the fed state compared to the fasted state (single 6 milligram dose): 14%
time postdose by which all subjects had detectable concentrations (single 6 milligram dose): ≤ 90 min
time postdose at which mean plasma concentrations reach Cmax (single 6 milligram dose, fasted state (Treatment A)): 3.0 h
time postdose at which mean plasma concentrations reach Cmax (single 6 milligram dose, fed state (Treatment B)): 6.0 h
AUC0-Tlast, Geometric LS Mean [6]: 9.194 ng·h/mL
AUC0-∞, Geometric LS Mean [6]: 10.72 ng·h/mL
Cmax, Geometric LS Mean [6]: 0.717 ng/mL
CL/F, arithmetic mean (single 6 milligram doxepin tablet, fasted (N = 15)): 837 L/h
AUC0-Tlast, Geometric LS Mean [7]: 13.39 ng·h/mL
AUC0-∞, Geometric LS Mean [7]: 15.14 ng·h/mL
Cmax, Geometric LS Mean [7]: 0.822 ng/mL
CL/F, arithmetic mean (single 6 milligram doxepin tablet, fed (N = 16)): 477 L/h
